Where “and” joins values, the source holds several entries; their conditions need not be identical. Identical values can stand only once. Like-named read-outs stand apart in the source and are kept apart here.
Assays:
[1] = tested on: Glomerella lagenarium syn. Colletotrichum lagenarium; experiment: Example B1: mixtures, preventative activity against Glomerella lagenarium syn. Colletotrichum lagenarium, liquid culture; format: cell-based; conditions: Colletotrichum orbiculare; component A alone, 0.03 ppm
Summary of the method: (§1)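 Fungal conidia mixed into potato dextrose broth were added to test compounds or mixtures in DMSO in microtiter wells. Fungicidal activity was scored on a 100-0 scale (100 = no disease growth; 0 = well fully covered by mycelium). Synergy was assessed by the Colby formula, comparing observed (O) with expected (E) action.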

[2] = tested on: Glomerella lagenarium (Colletotrichum lagenarium); experiment: Glomerella lagenarium (Colletotrichum lagenarium) liquid culture / cucumber / preventative (anthracnose); format: cell-based; conditions: Colletotrichum orbiculare, vs untreated control
Description: Mycelia fragments or conidia suspensions of a fungus prepared either freshly from liquid cultures of the fungus or from cryogenic storage, are directly mixed into nutrient broth. DMSO solutions of the test compound (max. 10 mg/mL) are diluted with 0.025% Tween20 by a factor of 50 and 10 μl of this solution is pipetted into a microtiter plate (96-well format). The nutrient broth containing the fungal spores/mycelia fragments is then added to give an end concentration of the tested compound. The test plates are incubated in the dark at 24° C. and 96% relative humidity. The inhibition of fungal growth is determined photometrically after 2 to 7 days, depending on the pathosystem, and percent antifungal activity relative to the untreated check is calculated.
Conidia of the fungus from cryogenic storage are directly mixed into nutrient broth (PDB potato dextrose broth). After placing a (DMSO) solution of test compound into a microtiter plate (96-well format), the nutrient broth containing the fungal spores is added.

Phakopsora pachyrhizi [3] = experiment: Example B5: preventative activity against Phakopsora pachyrhizi (soybean rust), whole soybean plants sprayed, leaf disks inoculated; format: in vivo
Summary of the method: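 Soybean plants sprayed 4 weeks after planting at rates in g a.i./ha; leaf disks from the first trifoliate cut 1 day later and inoculated with rust, five repetitions per rate. Scored 11–14 days post-inoculation relative to untreated infested check (100 = no disease, 0 = heavy infestation).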

[4] = tested on: Mycosphaerella arachidis syn. Cercospora arachidicola; experiment: Example B4: mixtures, preventative activity against Mycosphaerella arachidis syn. Cercospora arachidicola (brown leaf spot of peanut), liquid culture; format: cell-based; conditions: Mycosphaerella arachidis, component A alone
Excerpt: This occurs whenever the action of an active ingredient combination is greater than the sum of the actions of the individual components. The action to be expected E for a given active ingredient combination obeys the so-called COLBY formula and can be calculated as follows (COLBY, S. R. “Calculating synergistic and antagonistic responses of herbicide combination”. Weeds, Vol. 15, pages 20-22; 1967):
If the action actually observed (O) is greater than the expected action (E), then the action of the combination is super-additive, i.e. there is a synergistic effect. In mathematical terms, synergism corresponds to a positive value for the difference of (O-E). In the case of purely complementary addition of activities (expected activity), said difference (O-E) is zero. A negative value of said difference (O-E) signals a loss of activity compared to the expected activity.
Conidia of the fungus from cryogenic storage were directly mixed into nutrient broth (PDB potato dextrose broth). A DMSO solution of the test compounds was placed into a microtiter plate (96-well format) and the nutrient broth containing the fungal spores was added to it.
Cercospora arachidicola (Brown leaf spot of peanut). Fungicidal activity was evaluated on a 100-0 scale (100=no disease growth; 0=well completely covered by mycelium).

Septoria tritici = experiment: Example B3: mixtures, preventative activity against Septoria tritici (leaf blotch), liquid culture; format: cell-based; conditions: component A alone; for inhibition at 0.003125 ppm / inhibition at 0.00625 ppm / inhibition at 0.03 ppm: Zymoseptoria tritici; for inhibition at 0.03 ppm: read-out: Activity (%) A
Summary of the method: as §1

[5] = tested on: Puccinia recondita f. sp. tritici; experiment: Puccinia recondita f. sp. tritici / wheat / leaf disc preventative (brown rust); format: in vivo; conditions: foliar, vs untreated control
Description: (§2) Leaf disks or leaf segments of various plant species are cut from plants grown in a greenhouse. The cut leaf disks or segments are placed in multiwell plates (24-well format) onto water agar. The leaf disks are sprayed with a test solution before (preventative) or after (curative) inoculation. Compounds to be tested are prepared as DMSO solutions (max. 10 mg/mL) which are diluted to the appropriate concentration with 0.025% Tween20 just before spraying. The inoculated leaf disks or segments are incubated under defined conditions (temperature, relative humidity, light, etc.) according to the respective test system. A single evaluation of disease level is carried out 3 to 14 days after inoculation, depending on the pathosystem. Percent disease control relative to the untreated check leaf disks or segments is then calculated.
Wheat leaf segments cv. Kanzler are placed on agar in multiwell plates (24-well format) and sprayed with the formulated test compound diluted in water. The leaf disks are inoculated with a spore suspension of the fungus 1 day after application. The inoculated leaf segments are incubated at 19° C. and 75% rh under a light regime of 12 h light/12 h darkness in a climate cabinet and the activity of a compound is assessed as percent disease control compared to untreated when an appropriate level of disease damage appears in untreated check leaf segments (7-9 days after application).

[6] = tested on: Puccinia recondita f. sp. tritici; experiment: Puccinia recondita f. sp. tritici / wheat / leaf disc curative (brown rust); format: in vivo; conditions: foliar, vs untreated control
Description: Leaf disks or leaf segments of various plant species are cut from plants grown in a greenhouse. The cut leaf disks or segments are placed in multiwell plates (24-well format) onto water agar. The leaf disks are sprayed with a test solution before (preventative) or after (curative) inoculation. […] The inoculated leaf disks or segments are incubated under defined conditions (temperature, relative humidity, light, etc.) according to the respective test system. […] Percent disease control relative to the untreated check leaf disks or segments is then calculated. Wheat leaf segments cv. Kanzler are placed on agar in multiwell plates (24-well format). The leaf segments are inoculated with a spore suspension of the fungus. […] The formulated test compound diluted in water is applied 1 day after inoculation.

Septoria glycines = experiment: Example B2: mixtures, preventative activity against Septoria glycines (brown spot), liquid culture; format: cell-based; conditions: Septoria glycines, component A alone
Summary of the method: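 Conidia from fresh culture mixed into potato dextrose broth and added to test compounds in DMSO in 96-well plates. Growth inhibition scored 100-0 (100 = no growth; 0 = well covered by mycelium); synergy of mixtures judged by Colby expected-action (O-E).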

Phakopsora pachyrhizi [7] = experiment: Phakopsora pachyrhizi / soybean / leaf disc preventative (Asian soybean rust); format: in vivo; conditions: foliar, 288 h, vs untreated control
Description: as §2
Soybean leaf disks are placed on agar in multiwell plates (24-well format) and sprayed with test solutions. After drying, the leaf disks are inoculated with a spore suspension of the fungus. After appropriate incubation the activity of a compound is assessed approx.12 dpi (days after inoculation) as preventive fungicidal activity.

[8] = Phakopsora pachyrhizi, foliar, applied alone, 9 g/ha, read-out: Observed Activity (% of untreated) against Phakopsora pachyrhizi

melting point [°C] | Structure (SMILES) | inhibition at 0.03 ppm [1] [%] | inhibition of growth at 6.7 ppm [2] [%] | inhibition at 9 g/ha (Phakopsora pachyrhizi [3]; [8]) [%] | Observed Activity (% of untreated) against Phakopsora pachyrhizi (Phakopsora pachyrhizi [3]; applied alone, 2.25 g/ha) | Observed Activity (% of untreated) against Phakopsora pachyrhizi (Phakopsora pachyrhizi [3]; applied alone, 4.5 g/ha) | inhibition at 0.003125 ppm [4] [%] | inhibition at 0.00625 ppm [4] [%] | inhibition at 0.00625 ppm (Septoria tritici; 0.00625 ppm, 100-0 scale) [%] | pest or weed control at 200 ppm [5] [%] | pest or weed control at 200 ppm [6] [%] | pest or weed control at 67 ppm (Phakopsora pachyrhizi [7]) [%] | inhibition at 0.003125 ppm (Septoria glycines; 100-0 scale) [%] | inhibition at 0.00625 ppm (Septoria glycines; 100-0 scale) [%] | further results
91 to 94 | CCCc1ccn(-c2ccc(C)c(O/C(=C\OC)C(=O)OC)c2)n1 [X.01, methyl (Z)-3-methoxy-2-[2-methyl-5-(3-propylpyrazol-1-yl)phenoxy]prop-2-enoate] | 70 | ≥ 80 | 85 | 24% and 31% | 69% and 64% | 0 | 20 | 50 | ≥ 80 | ≥ 80 | ≥ 80 |  |  | inhibition at 9 g/ha (Phakopsora pachyrhizi [3]; Phakopsora pachyrhizi, foliar, active ingredient alone, 9 g/ha, read-out: Observed Activity (%) (% of untreated)): 78%; inhibition at 18 g/ha (Phakopsora pachyrhizi [3]; Phakopsora pachyrhizi, foliar, active ingredient alone, 18 g/ha, read-out: Observed Activity (%) (% of untreated)): 85%; Observed Activity (%) (% of untreated) (Phakopsora pachyrhizi [3]; active ingredient alone, 4.5 g/ha): 61% and 87% and 82% and 69%; Observed Activity (%) (% of untreated) (Phakopsora pachyrhizi [3]; active ingredient alone, 9 g/ha): 94% and 90%; Observed Activity (%) (% of untreated) (Phakopsora pachyrhizi [3]; active ingredient alone, 18 g/ha): 97%; inhibition at 0.003125 ppm (Septoria tritici; 0.003125 ppm, 100-0 scale): 20%; Activity (%) A (Septoria tritici; 0.00625 ppm, 100-0 scale): 70%; inhibition at 0.003125 ppm (Septoria glycines): 20%; inhibition at 0.00625 ppm (Septoria glycines): 70%
91 to 94 | CO/C=C(\Oc1cc(-n2ccc(C3CCC3)n2)ccc1C)C(=O)OC [X.04, methyl (Z)-2-[5-(3-cyclobutylpyrazol-1-yl)-2-methyl-phenoxy]-3-methoxy-prop-2-enoate] |  | ≥ 80 |  |  |  |  |  |  | ≥ 80 | ≥ 80 | ≥ 80 |  |  | 
76 to 80 | CO/C=C(\Oc1cc(-n2ccc(CC(C)C)n2)ccc1C)C(=O)OC [X.05, methyl (Z)-2-[5-(3-isobutylpyrazol-1-yl)-2-methyl-phenoxy]-3-methoxy-prop-2-enoate] |  | ≥ 80 |  |  |  |  |  |  | ≥ 80 | ≥ 80 | ≥ 80 |  |  | 
88 to 91 | CO/C=C(\Oc1cc(-n2ccc(C(C)C)n2)ccc1C)C(=O)OC [X.06, methyl (Z)-2-[5-(3-isopropylpyrazol-1-yl)-2-methyl-phenoxy]-3-methoxy-prop-2-enoate] | 20 | ≥ 80 | 97 | 13% and 9% | 61% and 48% and 73% | 20 | 50 | 50 | ≥ 80 | ≥ 80 | ≥ 80 | 0 | 50 | inhibition at 2.25 g/ha (Phakopsora pachyrhizi [3]; Phakopsora pachyrhizi, foliar, applied alone, 2.25 g/ha, read-out: Observed Activity (% of untreated) against Phakopsora pachyrhizi): 10%; inhibition at 18 g/ha (Phakopsora pachyrhizi [3]; Phakopsora pachyrhizi, foliar, applied alone, 18 g/ha, read-out: Observed Activity (% of untreated) against Phakopsora pachyrhizi): 97%; Observed Activity (%) (% of untreated) against Phakopsora pachyrhizi (Phakopsora pachyrhizi [3]; applied alone, 2.25 g/ha): 71%; Observed Activity (%) (% of untreated) against Phakopsora pachyrhizi (Phakopsora pachyrhizi [3]; applied alone, 4.5 g/ha): 94%; Observed Activity (% of untreated) against Phakopsora pachyrhizi (Phakopsora pachyrhizi [3]; applied alone, 9 g/ha): 81% and 93%; inhibition at 0.03 ppm (Septoria tritici; 100-0 scale): 70%; Activity (%) A (Septoria tritici; 0.003125 ppm, 100-0 scale): 0%; inhibition at 0.025 ppm (Septoria glycines; 0.025 ppm, 100-0 scale): 90%
115 to 118 | CO/C=C(\Oc1cc(-n2ccc(C3CC3)n2)ccc1C)C(=O)OC [X.07, methyl (Z)-2-[5-(3-cyclopropylpyrazol-1-yl)-2-methyl-phenoxy]-3-methoxy-prop-2-enoate] |  | ≥ 80 |  |  |  |  |  |  | ≥ 80 | ≥ 80 | ≥ 80 |  |  | 
107 to 109 | CO/C=C(\Oc1cc(-n2ncc(C(F)(F)F)n2)ccc1C)C(=O)OC [X.10, methyl (Z)-3-methoxy-2-[2-methyl-5-[4-(trifluoromethyl)triazol-2-yl]phenoxy]prop-2-enoate] | 0 | ≥ 80 |  |  |  | 70 | 90 |  | ≥ 80 | ≥ 80 | ≥ 80 | 70 | 90 | inhibition at 0.03 ppm ([4]; 0.03 ppm): 0%; inhibition at 0.003125 ppm (Septoria tritici; 72 h, 0.003125 ppm): 70%; inhibition at 0.00625 ppm (Septoria tritici; 72 h, 0.00625 ppm): 90%; inhibition at 0.03 ppm (Septoria tritici; 72 h, 72 hrs): 0%; inhibition at 0.03 ppm (Septoria glycines; 0.03 ppm, 100-0 scale, read-out: Activity (%) A): 0%
